Measurements: US9321768B2, “Indoles as respiratory syncytial virus antiviral agents” (JANSSEN SCIENCES IRELAND UC, priority 2010, dated 2016)
Where two headings read alike, the source gives them in different places.

What was measured:
rgRSV224 virus = assay: microbe, parasite or virus in culture; type: cell-based, respiratory syncytial virus (RSV); conditions: human respiratory syncytial virus, HeLa, 72 h, read-out: WT activity EC50
Experimental: (§1) Black 96-well clear-bottom microtiter plates (Corning, Amsterdam, The Netherlands) were filled in duplicate using a customized robot system with serial 4-fold dilutions of compound in a final volume of 50 μl culture medium [RPMI medium without phenol red, 10% FBS, 0.04% gentamycin (50 mg/ml) and 0.5% DMSO]. Then, 100 μl of a HeLa cell suspension (5×10^4 cells/ml) in culture medium was added to each well followed by the addition of 50 μl rgRSV224 (MOI=0.02) virus in culture medium using a multidrop dispenser (Thermo Scientific, Erembodegem, Belgium). rgRSV224 virus is an engineered virus that includes an additional GFP gene (Hallak et al, 2000) and was in-licensed from the NIH (Bethesda, Md., USA). Medium, virus- and mockinfected controls were included in each test. Cells were incubated at 37° C. in a 5% CO2 atmosphere. Three days post-virus exposure, viral replication was quantified by measuring GFP expression in the cells by a MSM laser microscope (Tibotec, Beerse, Belgium). The EC50 was defined as the 50% inhibitory concentration for GFP expression. In parallel, compounds were incubated for three days in a set of white 96-well microtitier plates (Corning) and the cytotoxicity of compounds in HeLa cells was determined by measuring the ATP content of the cells using the ATPlite kit (PerkinElmer, Zaventem, Belgium) according to the manufacturer's instructions. The CC50 was defined as the 50% concentration for cytotoxicity.

[1] = Cytotoxicity in HeLa cells, ATP content (ATPlite kit); type: cell-based; conditions: human
Experimental: as §1

[2] = HeLa cells, three days incubation, ATP content, read-out: Toxicity CC50

Which EC50 (rgRSV224 virus) does the source give for `CC(C)CCn1c(Cn2c(=O)n(C3CC3)c3ccncc32)c(C(N)=O)c2ccccc21` [Compound 14, 2-((1-cyclopropyl-2-oxo-1H-imidazo[4,5-c]pyridin-3(2H)-yl)methyl)-1-isopentyl-1H-indole-3-carboxamide] here?
Its EC50 is 0.00451 µM.

And the CC50 at 3 days [1, 2]?
The CC50 at 3 days was greater than 24.6 µM.

What does the source list for `O=c1n(Cc2c(I)c3ccc(Cl)cc3n2CCCCO)c2cnccc2n1C1CC1` [Compound 15, 3-((6-Chloro-1-(4-hydroxybutyl)-3-iodo-1H-indol-2-yl)methyl)-1-cyclopropyl-1H-imidazo[4,5-c]pyridin-2(3H)-one]?
EC50 (rgRSV224 virus): 0.0767 µM; CC50 at 3 days [1]: > 9.84 µM

What does the source list for `O=c1n(Cc2cc3ccc(Cl)cc3n2CCCCO)c2cnccc2n1C1CC1` [Compound 16, 3-((6-Chloro-1-(4-hydroxybutyl)-1H-indol-2-yl)methyl)-1-cyclopropyl-1H-imidazo[4,5-c]pyridin-2(3H)-one]?
EC50 (rgRSV224 virus): 0.124 µM; CC50 at 3 days [1]: > 9.84 µM

What does the source list for `CC(C)CCn1c(Cn2c(=O)n(C3CC3)c3ccncc32)c(C(=O)O)c2ccccc21` [Compound 17, 2-((1-cyclopropyl-2-oxo-1H-imidazo[4,5-c]pyridin-3(2H)-yl)methyl)-1-isopentyl-1H-indole-3-carboxylic acid]?
EC50 (rgRSV224 virus): 0.159 µM; CC50 at 3 days [1, 2]: > 98.4 µM

Which EC50 (rgRSV224 virus) does the source give for `CCOC(=O)c1c(Cn2c(=O)n(C3CC3)c3ccncc32)n(CCC(C)C)c2ccccc12` [Compound 18, ethyl 2-((1-cyclopropyl-2-oxo-1H-imidazo[4,5-c]pyridin-3(2H)-yl)methyl)-1-isopentyl-1H-indole-3-carboxylate] here?
Its EC50 is 3.01 µM.

What about the CC50 at 3 days [1, 2] of the same compound?
Its CC50 at 3 days is 32.1 µM.

Which EC50 (rgRSV224 virus) does the source give for `CC(C)CCn1c(Cn2c(=O)n(C3CC3)c3ccncc32)c(C(=O)NS(C)(=O)=O)c2ccccc21` [Compound 19, 2-((1-cyclopropyl-2-oxo-1H-imidazo[4,5-c]pyridin-3 (2H)-yl)methyl)-1-isopentyl-N-(methylsulfonyl)-1H-indole-3-carboxamide] here?
Its EC50 is 3.21 µM.

And the CC50 at 3 days [1, 2]?
Its CC50 at 3 days is greater than 9.84 µM.
